Results on 3 compounds are retold here after patent US12239632B2, “Asymmetric allyl tryptamines” (Alexander Shulgin Research Institute, Inc., priority 2021, dated 2025).

Structures are written as SMILES. Structures can show the parent of a compound that is named as a salt. Bounds are passed on as bounds.

One assay concerns the target T1, NAV1.5 (Homo sapiens, UniProt Q14524).
T1 construct: expressed in transfected cells
The experiment in a line: FLIPR membrane potential ion channel assay, NAV1.5 blocker. Type of assay: cell-based.

Another assay deals with T2, DAT (Homo sapiens, UniProt Q01959).
T2 construct: expressed in transfected cells
The experiment in a line: Neurotransmitter transporter uptake assay, DAT blocker mode. Type of assay: cell-based.

A further assay deals with T3, SERT (Homo sapiens, UniProt P31645).
T3 construct: expressed in transfected cells
The experiment in a line: cell-based. The settings on record: blocker mode; read-out: EC50/IC50, SERT (Blocker).

The target in another assay is T4, ADRA1A (Homo sapiens, UniProt P35348).
T4 construct: expressed in transfected cells
T4 sequence (P35348 1-466): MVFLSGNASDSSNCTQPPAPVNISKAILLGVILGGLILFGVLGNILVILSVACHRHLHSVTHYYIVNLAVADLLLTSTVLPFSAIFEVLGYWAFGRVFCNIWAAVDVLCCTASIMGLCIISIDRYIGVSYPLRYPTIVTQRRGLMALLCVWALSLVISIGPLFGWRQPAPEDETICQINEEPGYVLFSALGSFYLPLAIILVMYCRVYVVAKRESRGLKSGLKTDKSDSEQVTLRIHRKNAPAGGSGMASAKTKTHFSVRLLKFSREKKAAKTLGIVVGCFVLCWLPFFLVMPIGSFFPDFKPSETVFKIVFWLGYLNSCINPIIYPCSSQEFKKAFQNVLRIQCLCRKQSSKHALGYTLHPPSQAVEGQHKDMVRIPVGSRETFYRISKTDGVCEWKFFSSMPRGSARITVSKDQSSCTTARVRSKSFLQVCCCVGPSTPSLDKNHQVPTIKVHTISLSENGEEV
The experiment in a line: In vitro functional activity, ADRA1A antagonist mode. The class given is cell-based.

For a further assay, the target named is T5, ADRA2A (Homo sapiens, UniProt P08913).
T5 construct: expressed in transfected cells
T5 sequence (P08913 1-465): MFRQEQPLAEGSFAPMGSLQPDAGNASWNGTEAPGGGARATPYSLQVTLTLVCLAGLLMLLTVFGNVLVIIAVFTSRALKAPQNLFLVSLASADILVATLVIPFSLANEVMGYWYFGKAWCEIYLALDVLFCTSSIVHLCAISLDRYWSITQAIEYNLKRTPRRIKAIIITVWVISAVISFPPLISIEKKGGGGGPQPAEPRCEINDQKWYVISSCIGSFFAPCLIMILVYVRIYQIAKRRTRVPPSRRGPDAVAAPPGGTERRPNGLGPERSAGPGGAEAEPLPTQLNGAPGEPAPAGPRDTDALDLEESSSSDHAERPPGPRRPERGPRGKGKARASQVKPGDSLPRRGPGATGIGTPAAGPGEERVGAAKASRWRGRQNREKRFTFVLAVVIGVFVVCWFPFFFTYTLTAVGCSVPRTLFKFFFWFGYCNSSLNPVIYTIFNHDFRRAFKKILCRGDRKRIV
Nature of the assay: In vitro functional activity, ADRA2A antagonist mode. Type of assay: cell-based.

Another assay addresses T6, CAV1.2 (Homo sapiens, UniProt Q13936).
T6 construct: expressed in transfected cells
The experiment in a line: FLIPR membrane potential ion channel assay, CAV1.2 blocker. Type of assay: cell-based.

The target of assay [1] is T7, HTR2A (Homo sapiens, UniProt P28223).
T7 construct: expressed in transfected cells
The experiment in a line: Calcium mobilization assay, HTR2A agonist mode. Type of assay: cell-based. The settings on record: for agonist activity at HTR2A: agonist mode. For orientation: Calcium flux is commonly read through the fluorescence of an indicator in the cells.
Protocol: (§1) Compound activity was analyzed using CBIS data analysis suite (ChemInnovation, CA). For agonist mode assays, percentage activity was calculated using the following formula: % Activity=100%×(mean RFU of test sample−mean RFU of vehicle control)/(mean MAX RFU control ligand −mean RFU of vehicle control).

In a further assay the target is T8, HTR1A (Homo sapiens, UniProt P08908).
T8 construct: expressed in transfected cells
T8 sequence (P08908 1-422): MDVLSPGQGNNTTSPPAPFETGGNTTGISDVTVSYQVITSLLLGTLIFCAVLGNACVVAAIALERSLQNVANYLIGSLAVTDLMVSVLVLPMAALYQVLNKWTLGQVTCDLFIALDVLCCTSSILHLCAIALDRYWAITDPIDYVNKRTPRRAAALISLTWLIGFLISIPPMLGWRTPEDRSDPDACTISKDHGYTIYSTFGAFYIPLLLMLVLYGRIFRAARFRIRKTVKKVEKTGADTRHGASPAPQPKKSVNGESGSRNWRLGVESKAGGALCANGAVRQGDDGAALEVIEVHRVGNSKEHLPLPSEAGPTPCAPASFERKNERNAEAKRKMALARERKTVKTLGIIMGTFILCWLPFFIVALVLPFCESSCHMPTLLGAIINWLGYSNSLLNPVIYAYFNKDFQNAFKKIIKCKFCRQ
Nature of the assay: In vitro functional activity, HTR1A agonist mode. Type of assay: cell-based.

A further assay deals with T9, NET (Homo sapiens, UniProt P23975).
T9 construct: expressed in transfected cells
The experiment in a line: Neurotransmitter transporter uptake assay, NET blocker mode. The class given is cell-based.

The next assay addresses T10, HRH1 (Homo sapiens, UniProt P35367).
T10 construct: expressed in transfected cells
Nature of the assay: cell-based. The class given is cell-based. To be noted: antagonist mode; for IC50: read-out: EC50/IC50, HRH1 (Antagonist).

In another assay the target is T11, HTR1B (Homo sapiens, UniProt P28222).
T11 construct: expressed in transfected cells
Nature of the assay: In vitro functional activity, HTR1B agonist mode. Type of assay: cell-based.

The target of assay [2] is T12, HTR2B (Homo sapiens, UniProt P41595).
T12 construct: expressed in transfected cells
The experiment in a line: Calcium mobilization assay, HTR2B antagonist mode. Type of assay: cell-based. The method, then:
Activation of the GPCR results in the release of calcium from intracellular stores and an increase in dye fluorescence that can be measured.
Cell lines were expanded from freezer stocks and seeded into multi-well microplates. Then, the plates were incubated at 37° C. for an appropriate amount of time and loaded with Dye Loading buffer. To determine compound agonist activity, cells were incubated with the sample to induce a response, and HBSS/20 mM Hepes was added using a FLIPR Tetra (MDS). Activity was measured on a FLIPR Tetra. Calcium mobilization was monitored for 2 minutes.
To determine compound antagonist activity, cells were pre-incubated with the sample followed by an post-incubation administration of the compound with 3×EC80 agonist using FLIPR. Compound antagonist activity was measured on a FLIPR Tetra (MDS) and calcium mobilization was monitored for 2 minutes.
For antagonist mode assays, percentage inhibition was calculated using the following formula: % Inhibition=100%×(1−(mean RFU of test sample−mean RFU of vehicle control)/(mean RFU of EC80 control−mean RFU of vehicle control)).

The target of assay [3] is T7, HTR2A. The experiment in a line: Calcium mobilization assay, HTR2A antagonist mode. The class given is cell-based.
Protocol: Cell lines were expanded from freezer stocks and seeded into multi-well microplates. Then, the plates were incubated at 37° C. for an appropriate amount of time and loaded with Dye Loading buffer. […] Activity was measured on a FLIPR Tetra. Calcium mobilization was monitored for 2 minutes.
For the next assay, the target named is T13, hERG (Homo sapiens, UniProt Q12809).
T13 construct: expressed in transfected cells
Nature of the assay: FLIPR membrane potential ion channel assay, hERG blocker. The class given is cell-based. (Block of hERG is tested as a sign of cardiac risk.)

The target in a further assay is T14, DRD2S (Homo sapiens, UniProt P14416).
T14 construct: expressed in transfected cells
The experiment in a line: HitHunter cAMP assay, DRD2S agonist mode. The class given is cell-based.

Another assay addresses T15, MAOA (Homo sapiens, UniProt P21397).
T15 construct: purchased Sigma
T15 sequence (P21397 1-527): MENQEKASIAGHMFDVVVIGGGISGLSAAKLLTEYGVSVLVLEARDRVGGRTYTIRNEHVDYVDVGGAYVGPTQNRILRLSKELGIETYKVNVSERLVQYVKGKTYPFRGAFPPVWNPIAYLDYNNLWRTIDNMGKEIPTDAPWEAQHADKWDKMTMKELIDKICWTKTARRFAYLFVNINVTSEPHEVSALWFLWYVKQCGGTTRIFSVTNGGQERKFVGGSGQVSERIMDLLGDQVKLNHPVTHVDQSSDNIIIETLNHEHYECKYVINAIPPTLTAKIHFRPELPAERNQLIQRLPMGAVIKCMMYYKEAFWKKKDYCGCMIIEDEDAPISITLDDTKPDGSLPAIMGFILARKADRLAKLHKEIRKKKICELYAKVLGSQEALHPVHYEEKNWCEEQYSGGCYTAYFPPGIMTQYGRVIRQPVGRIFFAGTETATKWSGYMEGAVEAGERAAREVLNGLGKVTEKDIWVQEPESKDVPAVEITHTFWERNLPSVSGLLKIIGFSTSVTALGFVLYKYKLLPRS
The experiment in a line: MAO-A enzyme assay (kynuramine substrate). Type of assay: biochemical.

Assay [4] deals with T12, HTR2B. The experiment in a line: Calcium mobilization assay, HTR2B agonist mode. Type of assay: cell-based.
Protocol: as §1
The next assay has as its target T16, HTR6 (Homo sapiens, UniProt P50406).
T16 construct: expressed in transfected cells
The experiment in a line: PathHunter beta-Arrestin assay, HTR6 agonist mode. Type of assay: cell-based.

T1 sequence (Q14524 whole entry): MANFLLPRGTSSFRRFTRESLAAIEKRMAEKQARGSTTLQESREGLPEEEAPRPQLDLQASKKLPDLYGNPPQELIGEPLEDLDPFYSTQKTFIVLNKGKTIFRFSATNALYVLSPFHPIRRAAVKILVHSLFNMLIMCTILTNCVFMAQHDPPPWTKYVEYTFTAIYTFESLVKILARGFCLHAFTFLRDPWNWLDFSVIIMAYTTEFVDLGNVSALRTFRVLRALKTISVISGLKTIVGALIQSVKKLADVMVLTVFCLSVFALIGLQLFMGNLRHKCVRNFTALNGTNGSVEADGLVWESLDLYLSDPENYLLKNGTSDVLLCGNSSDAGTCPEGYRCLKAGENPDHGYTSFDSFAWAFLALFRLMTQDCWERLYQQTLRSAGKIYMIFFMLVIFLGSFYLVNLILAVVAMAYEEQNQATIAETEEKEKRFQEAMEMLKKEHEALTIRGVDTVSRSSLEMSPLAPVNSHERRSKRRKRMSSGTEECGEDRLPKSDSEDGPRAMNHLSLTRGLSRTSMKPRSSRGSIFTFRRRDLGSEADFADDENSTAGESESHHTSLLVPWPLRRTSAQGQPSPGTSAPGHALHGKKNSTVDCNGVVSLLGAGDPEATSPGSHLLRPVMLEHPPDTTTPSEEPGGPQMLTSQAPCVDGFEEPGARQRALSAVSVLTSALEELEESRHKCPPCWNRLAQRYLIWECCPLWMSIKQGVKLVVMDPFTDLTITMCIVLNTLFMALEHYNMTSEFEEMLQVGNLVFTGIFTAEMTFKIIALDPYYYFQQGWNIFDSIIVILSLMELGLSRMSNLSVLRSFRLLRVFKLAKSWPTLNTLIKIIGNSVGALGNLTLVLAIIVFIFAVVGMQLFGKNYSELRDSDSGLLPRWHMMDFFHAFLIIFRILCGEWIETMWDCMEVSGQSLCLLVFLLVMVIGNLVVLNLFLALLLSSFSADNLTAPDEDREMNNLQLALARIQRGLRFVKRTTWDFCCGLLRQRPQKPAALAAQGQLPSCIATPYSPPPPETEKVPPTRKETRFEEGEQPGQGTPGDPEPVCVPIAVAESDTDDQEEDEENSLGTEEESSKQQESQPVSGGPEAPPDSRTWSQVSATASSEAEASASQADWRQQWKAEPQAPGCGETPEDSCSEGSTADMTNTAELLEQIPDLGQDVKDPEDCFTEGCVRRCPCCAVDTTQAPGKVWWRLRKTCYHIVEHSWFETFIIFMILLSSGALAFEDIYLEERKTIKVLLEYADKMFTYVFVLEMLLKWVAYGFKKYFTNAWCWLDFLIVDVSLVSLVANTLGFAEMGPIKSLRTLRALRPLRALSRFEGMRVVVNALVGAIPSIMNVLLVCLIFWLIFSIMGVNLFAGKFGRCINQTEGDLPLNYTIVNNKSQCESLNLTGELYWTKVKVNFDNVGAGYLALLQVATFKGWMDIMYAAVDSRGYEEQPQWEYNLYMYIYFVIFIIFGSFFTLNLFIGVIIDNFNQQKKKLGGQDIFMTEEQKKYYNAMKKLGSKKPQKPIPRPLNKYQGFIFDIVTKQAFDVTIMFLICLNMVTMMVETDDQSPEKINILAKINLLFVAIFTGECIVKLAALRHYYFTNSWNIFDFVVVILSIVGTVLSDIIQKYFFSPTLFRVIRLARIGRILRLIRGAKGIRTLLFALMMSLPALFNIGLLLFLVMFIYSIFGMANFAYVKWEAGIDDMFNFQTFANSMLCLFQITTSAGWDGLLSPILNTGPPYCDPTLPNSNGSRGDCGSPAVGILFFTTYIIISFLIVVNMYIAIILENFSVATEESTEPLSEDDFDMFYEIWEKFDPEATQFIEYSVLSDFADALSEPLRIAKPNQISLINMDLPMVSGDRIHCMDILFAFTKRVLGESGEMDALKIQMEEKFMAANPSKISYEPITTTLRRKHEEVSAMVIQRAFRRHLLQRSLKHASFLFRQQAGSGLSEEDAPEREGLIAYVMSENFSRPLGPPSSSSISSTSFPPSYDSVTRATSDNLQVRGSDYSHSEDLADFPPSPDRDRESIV
T10 sequence (P35367 whole entry): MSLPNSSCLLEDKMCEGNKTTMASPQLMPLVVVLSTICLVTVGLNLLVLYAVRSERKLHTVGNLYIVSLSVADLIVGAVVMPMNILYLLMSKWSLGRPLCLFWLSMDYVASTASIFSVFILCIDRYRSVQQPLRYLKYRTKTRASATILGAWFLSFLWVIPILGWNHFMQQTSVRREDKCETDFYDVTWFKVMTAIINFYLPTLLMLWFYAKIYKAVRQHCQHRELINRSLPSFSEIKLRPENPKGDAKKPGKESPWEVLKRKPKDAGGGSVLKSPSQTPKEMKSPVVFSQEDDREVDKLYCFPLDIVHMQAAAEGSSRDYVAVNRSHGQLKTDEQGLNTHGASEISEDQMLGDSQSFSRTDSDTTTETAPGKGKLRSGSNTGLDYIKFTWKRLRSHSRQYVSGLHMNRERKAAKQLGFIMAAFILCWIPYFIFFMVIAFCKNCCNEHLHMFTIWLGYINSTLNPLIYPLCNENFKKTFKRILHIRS
T9 sequence (P23975 whole entry): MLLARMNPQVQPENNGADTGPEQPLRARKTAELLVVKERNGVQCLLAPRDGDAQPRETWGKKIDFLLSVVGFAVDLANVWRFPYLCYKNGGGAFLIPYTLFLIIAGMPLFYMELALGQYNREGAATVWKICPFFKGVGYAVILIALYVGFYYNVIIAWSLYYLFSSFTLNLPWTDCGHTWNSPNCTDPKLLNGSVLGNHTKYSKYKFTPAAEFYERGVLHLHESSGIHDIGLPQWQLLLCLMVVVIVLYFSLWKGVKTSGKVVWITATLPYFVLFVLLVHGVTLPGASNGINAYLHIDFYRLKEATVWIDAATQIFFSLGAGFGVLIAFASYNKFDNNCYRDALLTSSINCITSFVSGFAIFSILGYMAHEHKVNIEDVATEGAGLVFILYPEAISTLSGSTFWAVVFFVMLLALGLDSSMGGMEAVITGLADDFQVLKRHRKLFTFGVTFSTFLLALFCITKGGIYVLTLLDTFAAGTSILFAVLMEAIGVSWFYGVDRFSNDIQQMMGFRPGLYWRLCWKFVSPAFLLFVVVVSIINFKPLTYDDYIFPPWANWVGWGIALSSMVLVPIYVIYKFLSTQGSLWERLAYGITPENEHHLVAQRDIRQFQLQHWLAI
T16 sequence (P50406 whole entry): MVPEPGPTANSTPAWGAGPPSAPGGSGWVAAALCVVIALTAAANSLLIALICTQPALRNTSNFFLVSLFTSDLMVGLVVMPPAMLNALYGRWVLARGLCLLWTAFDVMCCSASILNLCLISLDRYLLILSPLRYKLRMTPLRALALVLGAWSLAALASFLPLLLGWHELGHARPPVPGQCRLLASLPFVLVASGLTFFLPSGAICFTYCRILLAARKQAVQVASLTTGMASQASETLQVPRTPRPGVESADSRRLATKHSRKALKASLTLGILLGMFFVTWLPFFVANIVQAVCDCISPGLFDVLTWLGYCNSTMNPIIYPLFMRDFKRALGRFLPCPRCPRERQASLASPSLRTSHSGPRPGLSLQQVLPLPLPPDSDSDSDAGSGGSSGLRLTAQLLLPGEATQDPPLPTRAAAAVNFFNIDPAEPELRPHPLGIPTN
T13 sequence (Q12809 whole entry): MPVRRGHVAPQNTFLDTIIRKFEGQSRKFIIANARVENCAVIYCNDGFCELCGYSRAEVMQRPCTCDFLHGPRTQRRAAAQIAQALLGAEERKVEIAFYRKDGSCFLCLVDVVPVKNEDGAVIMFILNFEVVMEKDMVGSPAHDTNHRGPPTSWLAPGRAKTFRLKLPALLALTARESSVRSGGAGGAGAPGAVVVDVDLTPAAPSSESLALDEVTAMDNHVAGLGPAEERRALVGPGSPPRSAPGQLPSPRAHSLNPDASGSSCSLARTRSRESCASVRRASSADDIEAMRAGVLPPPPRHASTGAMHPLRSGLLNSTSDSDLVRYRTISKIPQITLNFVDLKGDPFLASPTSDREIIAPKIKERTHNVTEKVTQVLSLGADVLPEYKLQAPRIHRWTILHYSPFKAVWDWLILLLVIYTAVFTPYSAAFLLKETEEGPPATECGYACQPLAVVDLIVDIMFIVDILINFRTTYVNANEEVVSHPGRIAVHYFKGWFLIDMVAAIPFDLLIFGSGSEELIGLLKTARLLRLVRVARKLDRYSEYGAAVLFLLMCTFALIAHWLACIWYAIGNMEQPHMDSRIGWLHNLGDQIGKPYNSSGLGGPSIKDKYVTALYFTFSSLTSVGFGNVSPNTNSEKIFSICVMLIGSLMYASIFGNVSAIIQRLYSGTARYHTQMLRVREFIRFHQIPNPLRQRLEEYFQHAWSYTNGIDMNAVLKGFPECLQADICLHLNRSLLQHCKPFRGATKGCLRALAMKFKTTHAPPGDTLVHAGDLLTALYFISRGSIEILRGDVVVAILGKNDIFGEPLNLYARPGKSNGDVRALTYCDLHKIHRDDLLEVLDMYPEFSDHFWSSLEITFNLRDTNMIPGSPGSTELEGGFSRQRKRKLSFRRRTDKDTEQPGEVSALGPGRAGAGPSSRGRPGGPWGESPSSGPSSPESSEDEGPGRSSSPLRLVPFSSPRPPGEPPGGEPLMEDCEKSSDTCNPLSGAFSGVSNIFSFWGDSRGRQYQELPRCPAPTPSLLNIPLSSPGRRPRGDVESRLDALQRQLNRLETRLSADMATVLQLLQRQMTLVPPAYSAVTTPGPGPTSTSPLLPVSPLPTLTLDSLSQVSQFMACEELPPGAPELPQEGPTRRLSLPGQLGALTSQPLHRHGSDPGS
Protocol for ADRA1A: (§2) The assay monitors the activation of a GPCR via Gi and Gs secondary messenger signaling, using ß-Gal as a functional reporter. […] To determine Gi/Gs agonism, media was aspirated from cells and replaced with 15 μL 2:1 HBSS/10 mM HEPES:cAMP XS+Ab reagent. Concentrated (4×) test compound in assay buffer was added to cells and incubated at 37° C. or room temperature for 30 or 60 minutes. For Gi agonist activation, cells were incubated with EC80 forskolin in addition to a test compound. Vehicle concentration was 1%.
Protocol for ADRA2A: as §2
Protocol for CAV1.2: (§3) Methods—Ion Channel Assay: Membrane potential changes were measured using the FLIPR® Membrane potential Assay Kit. A fluorescent indicator dye in combination with a quencher was used to reflect real-time membrane potential changes associated with ion channel activation and ion transporter proteins. Calcium channel CAV1.2, potassium channel hERG, and sodium channel NAV1.5 were tested.
(§4) To determine agonist and antagonist activity, cell lines were expanded from freezer stocks, seeded into multi-well microplates, and incubated at 37° C. Cells were then loaded with dye and incubated again.
(§5) For agonist determination, cells were incubated with the sample a different dilutions to induce a response. For antagonist determination, cells were pre-incubated with the sample at different dilutions. Following dye administration, the sample was added to the cells in the presence of EC80 agonist and then re-incubated at room temperature in the dark.
(§6) For antagonist mode assays, percentage inhibition was calculated using the following formula: % Inhibition=100%×(1−(mean RLU of test sample−mean RLU of vehicle control)/(mean RLU of EC80 control−mean RLU of vehicle control)).
Protocol for DAT: (§7) Methods—Monoamine Transporter Assay: Neurotransmitter uptake via transporters was measured using the Neurotransmitter Transporter Uptake Assay Kit from Molecular Devices. […] Increased intracellular fluorescence intensity following uptake of biogenic amine neurotransmitters via transporters is measured and can be run in a kinetic or endpoint mode.
(§8) Compound was added and the mixture was incubated. Following compound incubation, dye was added to the wells and the plate was re-incubated. Microplates were then transferred to a PerkinElmer Envision™ instrument for fluorescence signal detection.
(§9) Compound activity was analyzed using CBIS data analysis (ChemInnovation, CA). For blocker mode assays, percentage inhibition was calculated using the following formula: % Inhibition=100%×(1−(mean RLU of test sample−mean RLU of vehicle control)/(mean RLU of positive control−mean RLU of vehicle control)).
Protocol for DRD2S: as §2
Compound activity was analyzed using CBIS data analysis suite (ChemInnovation, CA). For Gs agonist mode assays, percentage activity was calculated using the following formula: % Activity=100%×(mean RLU of test sample−mean RLU of vehicle control)/(mean RLU of MAX control−mean RLU of vehicle control).
For Gi agonist mode assays, percentage activity was calculated using the following formula: % Activity=100%×(1−(mean RLU of test sample−mean RLU of MAX control)/(mean RLU of vehicle control−mean RLU of MAX control)).
Protocol for HRH1: (§10) Such activity was determined to assess potential neuromodulatory activity and safety liabilities.
Protocol for HTR1A: as §10
Protocol for HTR1B: as §10
Protocol for HTR6: The assay monitors restoration of ß-galactosidase (β-Gal) as a marker of GPCR activation and recruitment of β-Arrestin to the receptor.
3.5 μL of concentrated sample was added to cells and incubated at 37° C. or room temperature for 90 to 180 minutes. Vehicle concentration was 1%.
Assay signal was generated through a single addition of 50% v/v of PathHunter Detection reagent cocktail, followed by a one hour incubation at room temperature. Microplates were read following signal generation with a plate reader set to detect chemiluminescent signals. Compound activity was analyzed using CBIS data analysis suite (ChemInnovation, CA).
Protocol for MAOA: Methods—Enzyme Assays: Enzymatic activity was determined by measuring either the consumption of substrate or production of product over time. For MAO-A (Sigma), enzyme and test compound were preincubated for 15 minutes at 37° C. before substrate addition. The reaction was initiated by addition of kynuramine and incubated at 37° ° C. for 30 minutes. The reaction was terminated by addition of NaOH. The amount of 4-hydroxyquinoline formed was determined through spectrofluorimetric readout with the emission detection at 380 nm and excitation wavelength 310 nm.
Protocol for NAV1.5: as §3, §4, §5, §6
Protocol for NET: as §7, §8, §9
Protocol for SERT: as §7, §8, §9
Protocol for hERG: as §3, §4, §5, §6

In the case of `C=CCN(CCc1c[nH]c2ccc(OC)cc12)C(C)C` [ASR-3001, N-isopropyl-N-(2-(5-methoxy-1H-indol-3-yl)ethyl)prop-2-en-1-amine hydrochloride], the IC50 was over 10 µM on NAV1.5; over 10 µM on DAT; 6.84 µM on SERT; over 10 µM at ADRA1A; over 10 µM on ADRA2A; over 10 µM at CAV1.2. For the same compound, the IC50 on NET was over 10 µM; at HRH1 it was over 10 µM; at HTR2B [2], 0.0511 µM; on HTR2A [3], 0.0646 µM; against hERG it was over 10 µM; on MAOA it was over 10 µM. The EC50 (usually the concentration needed to bring the measured effect to its halfway point) on HTR2A [1] was 0.00985 µM; at HTR1A it was 0.642 µM; at HTR1B, 0.0468 µM; on DRD2S, over 10 µM; on HTR2B [4], 0.0874 µM; on HTR6 it was 0.42 µM. In addition, the “agonist activity at HTR2A” value on HTR2A [1] is “potent agonist activity”.
In the case of `C=CCN(CCc1c(C)[nH]c2ccccc12)C(C)C` [ASR-3002, N-isopropyl-N-(2-(2-methyl-1H-indol-3-yl)ethyl)prop-2-en-1-amine hydrochloride], the IC50 on NAV1.5 is over 10 µM; at DAT it was over 10 µM; at SERT, over 10 µM; against ADRA1A, 8.52 µM; on ADRA2A, 0.383 µM; against CAV1.2 it was over 10 µM. Also, the IC50 on NET is over 10 µM; on HRH1, over 10 µM; at HTR2B [2] it was 0.498 µM; on HTR2A [3], 4.13 µM; against hERG, over 10 µM; on MAOA it was over 10 µM. Moreover, the concentration for a half-maximal effect (EC50) on HTR2A [1] was 2.6 µM; on HTR1A, over 10 µM; at HTR1B, 4.95 µM; at DRD2S, 4.48 µM; on HTR2B [4], 1.28 µM; on HTR6 it was 1.68 µM. In addition, the “agonist activity at HTR2A” value at HTR2A [1] is listed as “potent agonist activity”. The “agonistic activity for dopamine receptor D2 short isoform” value at DRD2S (agonist mode) is on record as “agonistic activity”.
For `C=CCN(CCc1c[nH]c2ccccc12)C(C)C` [ASR-3003, N-(2-(1H-indol-3-yl)ethyl)-N-isopropylprop-2-en-1-amine hydrochloride], the IC50 against NAV1.5 is over 10 µM; on DAT it was over 10 µM; at SERT, 2.37 µM; on ADRA1A, over 10 µM; against ADRA2A, 3.72 µM; on CAV1.2, over 10 µM. The IC50 is over 10 µM on NET; 6.29 µM on HRH1; 0.507 µM on HTR2B [2]; 1.41 µM on HTR2A [3]; over 10 µM against hERG; over 10 µM on MAOA. Moreover, the concentration for a half-maximal effect (EC50) was 0.462 µM on HTR2A [1]; over 10 µM on HTR1A; 0.813 µM at HTR1B; 0.183 µM on DRD2S; 2.54 µM at HTR2B [4]; 4.26 µM at HTR6. Besides, the “agonist activity at HTR2A” value on HTR2A [1] is reported as “potent agonist activity”. Further, the “antagonistic effects at histamine receptor H1” value on HRH1 is recorded as “antagonistic effects”. For the same compound, the “agonistic activity for dopamine receptor D2 short isoform” value on DRD2S (agonist mode) is listed as “agonistic activity”. For the same compound, the “potency for DRD2S” value at DRD2S (agonist mode) is “nanomolar level”.
